In paper PMC10657444, “Design and evaluation of tadpole-like conformational antimicrobial peptides” (Communications Biology, 2023):
Converted amounts (≈) assume the structure as drawn. “And” between values parts separate entries of the source, which are not always exact repeats. Equal values may be shown once. Non-standard residues stand in square brackets, D forms with d. Residues, ends and D or L forms follow the SMILES beside them.

Assays:
MRSA = type: cell-based, Staphylococcus aureus
Description: (§1) Bacteria were cultivated in Luria-Bertani (LB) broth.

[1] = tested on: Gram-negative bacterial strains; type: cell-based; conditions: A. baumannii and Klebsiella pneumoniae
Description: as §1

S. aureus ATCC 25923 = assay: Time-kill assay (growth curve, OD600); type: cell-based, Staphylococcus aureus; conditions: 16 × MIC
Method: Tube was inoculated (5 × 10^6 CFU/mL) with S. aureus ATCC 25923 and incubated at 37°C under shaking. Bacterial concentration was measured at each time point (0, 1, 2, 2.5, 3, 3.5, 4, 5, 6 and 7 h) by measuring absorbance at 600 nm with a microplate reader.

MRSA USA 300 = assay: Membrane permeability, SYTOX Green; type: cell-based, Staphylococcus aureus; conditions: for time to maximum SYTOX Green fluorescence intensity: different concentrations
Method: Fluorescent probe SYTOX^TM Green (Invitrogen/ Life Technologies, S7020) was used to analyze the effect of HT2 and RI-HT2 on membrane permeability of MRSA USA 300 and K. pneumoniae ATCC 700603 as described elsewhere. SYTOX^TM Green is a DNA binding dye that is fluorescent when bound to nucleic acids and only enters cells with compromised plasma membranes. MRSA USA 300 and K. pneumoniae ATCC 700603 were cultured in LB broth to mid log phase at 37 °C and washed with PBS and resuspended (OD595 ≈ 0.1) in the same buffer. SYTOX^TM Green was added into the cell suspension with a final concentration of 5 μM and being kept in dark for 20 min. 98 µL pre-treated cell suspension was transferred into wells of 96-well glass black plates. Then, 2 µL of compound or DMSO were added to initiate the reaction. The final concentrations of HT2 and RI-HT2 were 1 ×, 2 ×, 4 × and 8 × MIC. Fluorescence strength was measured with excitation/emission wavelength of 485/528 nm every 5 min for 60 min.

A. baumannii 1318 = type: cell-based, Acinetobacter baumannii
Description: as §1

A. baumannii 1337 = type: cell-based, Acinetobacter baumannii
Description: as §1

K. pneumoniae 3026 = type: cell-based, Klebsiella pneumoniae
Description: as §1

## CC[C@H](C)[C@H](NC(=O)[C@H](CCCNC(=N)N)NC(=O)[C@H](CCCNC(=N)N)NC(=O)[C@H](CC(C)C)NC(=O)[C@H](Cc1ccccc1)NC(=O)[C@@H](N)CCCNC(=N)N)C(=O)N[C@@H](Cc1ccccc1)C(=O)N[C@@H](Cc1ccccc1)C(=O)N[C@@H](Cc1ccccc1)C(=O)N[C@@H](Cc1ccccc1)C(N)=O [HT2] (H-RFLRRIFFFF-NH2)
MRSA
  MICs against Gram-positive bacterial strains: 1.57 to 3.13 µM
[1]
  MICs against Gram-negative bacterial strains, such as A. baumannii and Klebsiella pneumoniae: 6.25 µM
S. aureus ATCC 25923
  time to complete inhibition of bacterial growth: 1 h
S. aureus ATCC 25923; 0 h
  OD600, growth curve (SI Fig 2): 0.056 and 0.082 and 0.062
S. aureus ATCC 25923; 1 h
  OD600, growth curve (SI Fig 2): 0.082 and 0.091 and 0.066
S. aureus ATCC 25923; 2 h
  OD600, growth curve (SI Fig 2): 0.069 and 0.072 and 0.06
S. aureus ATCC 25923; 2.5 h
  OD600, growth curve (SI Fig 2): 0.061 and 0.073 and 0.063
S. aureus ATCC 25923; 3 h
  OD600, growth curve (SI Fig 2): 0.083 and 0.086 and 0.085
S. aureus ATCC 25923; 3.5 h
  OD600, growth curve (SI Fig 2): 0.066 and 0.069 and 0.083
S. aureus ATCC 25923; 4 h
  OD600, growth curve (SI Fig 2): 0.073 and 0.083 and 0.077
S. aureus ATCC 25923; 5 h
  OD600, growth curve (SI Fig 2): 0.07 and 0.073 and 0.058
S. aureus ATCC 25923; 6 h
  OD600, growth curve (SI Fig 2): 0.08 and 0.081 and 0.078
S. aureus ATCC 25923; 7 h
  OD600, growth curve (SI Fig 2): 0.077 and 0.084 and 0.075
MRSA USA 300; 2 × MIC, time 25 min
  Fluorescence intensity: 31855 and 32475 and 30920
MRSA USA 300; 2 × MIC, time 30 min
  Fluorescence intensity: 32738 and 33363 and 31902
MRSA USA 300; 2 × MIC, time 35 min
  Fluorescence intensity: 33433 and 34141 and 32365
MRSA USA 300; 2 × MIC, time 40 min
  Fluorescence intensity: 33952 and 34791 and 32993
MRSA USA 300; 2 × MIC, time 45 min
  Fluorescence intensity: 34234 and 35153 and 33304
MRSA USA 300; 2 × MIC, time 50 min
  Fluorescence intensity: 34616 and 35530 and 33726
MRSA USA 300; 2 × MIC, time 55 min
  Fluorescence intensity: 35021 and 36015 and 33983
MRSA USA 300; 2 × MIC, time 60 min
  Fluorescence intensity: 35210 and 36080 and 33852
MRSA USA 300; 4 × MIC, time 25 min
  Fluorescence intensity: 58334 and 57993 and 60104
MRSA USA 300; 4 × MIC, time 30 min
  Fluorescence intensity: 59686 and 59179 and 61418
MRSA USA 300; 4 × MIC, time 35 min
  Fluorescence intensity: 60470 and 60307 and 62172
MRSA USA 300; 4 × MIC, time 40 min
  Fluorescence intensity: 61373 and 61097 and 62778
MRSA USA 300; 4 × MIC, time 45 min
  Fluorescence intensity: 61952 and 61758 and 63164
MRSA USA 300; 4 × MIC, time 50 min
  Fluorescence intensity: 62152 and 62388 and 63395
MRSA USA 300; 4 × MIC, time 55 min
  Fluorescence intensity: 62374 and 62948 and 63676
MRSA USA 300; 4 × MIC, time 60 min
  Fluorescence intensity: 62761 and 62954 and 64070
MRSA USA 300; 8 × MIC, time 0 min
  Fluorescence intensity: 1486
MRSA USA 300; 8 × MIC, time 25 min
  Fluorescence intensity: 61022 and 63005 and 63531
MRSA USA 300; 8 × MIC, time 30 min
  Fluorescence intensity: 61916 and 63588 and 64175
MRSA USA 300; 8 × MIC, time 35 min
  Fluorescence intensity: 62425 and 64473 and 64696
MRSA USA 300; 8 × MIC, time 40 min
  Fluorescence intensity: 62708 and 64561 and 64714
MRSA USA 300; 8 × MIC, time 45 min
  Fluorescence intensity: 62984 and 64891 and 65072
MRSA USA 300; 8 × MIC, time 50 min
  Fluorescence intensity: 63293 and 64293 and 63594
MRSA USA 300; 8 × MIC, time 55 min
  Fluorescence intensity: 63589 and 64553 and 65531
MRSA USA 300; 8 × MIC, time 60 min
  Fluorescence intensity: 63666 and 65987 and 65753
MRSA USA 300; MIC, time 0 min
  Fluorescence intensity: 1304 and 1201 and 1387
MRSA USA 300; MIC, time 25 min
  Fluorescence intensity: 17216 and 17215 and 16315
MRSA USA 300; MIC, time 30 min
  Fluorescence intensity: 17367 and 17359 and 16618
MRSA USA 300; MIC, time 35 min
  Fluorescence intensity: 17590 and 17525 and 16584
MRSA USA 300; MIC, time 40 min
  Fluorescence intensity: 17600 and 17633 and 16680
MRSA USA 300; MIC, time 45 min
  Fluorescence intensity: 17644 and 17567 and 16788
MRSA USA 300; MIC, time 50 min
  Fluorescence intensity: 17792 and 17686 and 16728
MRSA USA 300; MIC, time 55 min
  Fluorescence intensity: 17738 and 17641 and 16766
MRSA USA 300; MIC, time 60 min
  Fluorescence intensity: 17754 and 17734 and 16661
MRSA USA 300
  time to maximum SYTOX Green fluorescence intensity: ≤ 10 min

## CC[C@@H](C)[C@@H](NC(=O)[C@@H](Cc1ccccc1)NC(=O)[C@@H](Cc1ccccc1)NC(=O)[C@@H](Cc1ccccc1)NC(=O)[C@H](N)Cc1ccccc1)C(=O)N[C@H](CCCNC(=N)N)C(=O)N[C@H](CCCNC(=N)N)C(=O)N[C@H](CC(C)C)C(=O)N[C@H](Cc1ccccc1)C(=O)N[C@H](CCCNC(=N)N)C(N)=O [RI-HT2] (H-[dF][dF][dF][dF][dI][dR][dR][dL][dF][dR]-NH2; N-terminus assumed)
MRSA USA 300; 2 × MIC, time 0 min
  Fluorescence intensity: 1131 and 1217 and 1235
MRSA USA 300; 2 × MIC, time 5 min
  Fluorescence intensity: 20197 and 21230 and 20865
MRSA USA 300; 2 × MIC, time 10 min
  Fluorescence intensity: 25460 and 25912 and 25261
MRSA USA 300; 2 × MIC, time 15 min
  Fluorescence intensity: 28346 and 28832 and 27920
MRSA USA 300; 2 × MIC, time 20 min
  Fluorescence intensity: 30460 and 31033 and 29642
MRSA USA 300; 2 × MIC, time 25 min
  Fluorescence intensity: 31855 and 32475 and 30920
MRSA USA 300; 2 × MIC, time 30 min
  Fluorescence intensity: 32738 and 33363 and 31902
MRSA USA 300; 2 × MIC, time 35 min
  Fluorescence intensity: 33433 and 34141 and 32365
MRSA USA 300; 4 × MIC, time 0 min
  Fluorescence intensity: 1186 and 1404 and 1281
MRSA USA 300; 4 × MIC, time 5 min
  Fluorescence intensity: 40226 and 40219 and 41612
MRSA USA 300; 4 × MIC, time 10 min
  Fluorescence intensity: 48704 and 48472 and 50316
MRSA USA 300; 4 × MIC, time 15 min
  Fluorescence intensity: 53321 and 53163 and 55112
MRSA USA 300; 4 × MIC, time 20 min
  Fluorescence intensity: 56328 and 55931 and 58102
MRSA USA 300; 4 × MIC, time 25 min
  Fluorescence intensity: 58334 and 57993 and 60104
MRSA USA 300; 4 × MIC, time 30 min
  Fluorescence intensity: 59686 and 59179 and 61418
MRSA USA 300; 4 × MIC, time 35 min
  Fluorescence intensity: 60470 and 60307 and 62172
MRSA USA 300; 8 × MIC, time 0 min
  Fluorescence intensity: 1486 and 1674 and 1277
MRSA USA 300; 8 × MIC, time 5 min
  Fluorescence intensity: 46924 and 49356 and 49374
MRSA USA 300; 8 × MIC, time 10 min
  Fluorescence intensity: 54383 and 56666 and 56984
MRSA USA 300; 8 × MIC, time 15 min
  Fluorescence intensity: 57832 and 59952 and 60652
MRSA USA 300; 8 × MIC, time 20 min
  Fluorescence intensity: 59829 and 61957 and 62485
MRSA USA 300; 8 × MIC, time 25 min
  Fluorescence intensity: 61022 and 63005 and 63531
MRSA USA 300; 8 × MIC, time 30 min
  Fluorescence intensity: 61916 and 63588 and 64175
MRSA USA 300; 8 × MIC, time 35 min
  Fluorescence intensity: 62425 and 64473 and 64696
MRSA USA 300; 8 × MIC, time 40 min
  Fluorescence intensity: 62708
MRSA USA 300; MIC, time 0 min
  Fluorescence intensity: 1304 and 1201 and 1387
MRSA USA 300; MIC, time 5 min
  Fluorescence intensity: 12522 and 12645 and 12185
MRSA USA 300; MIC, time 10 min
  Fluorescence intensity: 14676 and 14962 and 14128
MRSA USA 300; MIC, time 15 min
  Fluorescence intensity: 16119 and 16290 and 15431
MRSA USA 300; MIC, time 20 min
  Fluorescence intensity: 16841 and 16805 and 16042
MRSA USA 300; MIC, time 25 min
  Fluorescence intensity: 17216 and 17215 and 16315
MRSA USA 300; MIC, time 30 min
  Fluorescence intensity: 17367 and 17359 and 16618
MRSA USA 300; MIC, time 35 min
  Fluorescence intensity: 17590 and 17525 and 16584
MRSA USA 300; MIC, time 40 min
  Fluorescence intensity: 17600 and 17633 and 16680
MRSA USA 300
  time to maximum SYTOX Green fluorescence intensity: ≤ 15 min
A. baumannii 1318
  MIC Gram- A. b 1318: 3.13 µM (≈ 4.53 µg/mL)
A. baumannii 1337
  MIC Gram- A. b 1337: 3.13 µM (≈ 4.53 µg/mL)
K. pneumoniae 3026
  MIC Gram- K. p 3026: 3.13 µM (≈ 4.53 µg/mL)
